Columns and labels:
Cox-2 mRNA [1] = test: Cox-2 mRNA in isolated spinal cord slice in vitro; assay type: cell-based, rat; conditions: 10 ng/ml; after three hours
Procedure: Two mechanisms may contribute to central Cox-2 induction in response to peripheral inflammation: 1) sensory inflow from nerve fibers innervating the inflamed hindpaw or 2) circulating pro-inflammatory cytokines. To determine whether primary sensory neuron activity increases central Cox-2, an isolated adult rat spinal cord slice preparation with an attached dorsal root was analyzed (FIG. 5A). To prepare this spinal cord slice, the lumbar spinal cord from an adult rat under urethane anesthesia was removed and immersed in cold Kreb's solution. A 700-μm-thick transverse slice with attached L4 dorsal root (15-20 mm) was prepared and perfused with Kreb's solution saturated with 95% O2 and 5% CO2 at 36-37° C. (Baba et al., J Neurosci 19:859, 1999). The L4 dorsal root was electrically stimulated for 30 minutes using a suction electrode at 20 μA (0.05 ms, 50 Hz) for Aβ-fibers, 100 μA (0.05 ms, 50 Hz) for […] 1000 μA (0.5 ms, 50 Hz) for C-fibers. The slices were perfused with Kreb's solution for two hours before electrical stimulation, and for three hours after stimulation.

Cox-2 mRNA [2] = test: Cox-2 mRNA induction by IL-1β in primary DRG neuron cultures; assay type: cell-based, rat; conditions: 1 or 10 ng/ml
Procedure: (§1) To determine whether IL-1β induces central Cox-2, rats were subjected to intravenous or intrathecal administration of this cytokine, and Cox-2 mRNA levels in the lumbar spinal cord were assessed five hours later. […] IL-1β also induces Cox-2 expression in dorsal root ganglion neurons (“DRG”), which are primary sensory neurons, both in vivo after intrathecal IL-1β administration and in vitro in primary neuronal cultures. […] For this analysis, Cox-2 mRNA levels were monitored using an RNase protection assay, and protein expression was visualized by immunohistochemistry, as described herein (FIG. 10).
To measure the contribution of p38, ERK, and NFκ-B to IL-1β-mediated induction of Cox-2 mRNA and protein levels, specific inhibitors for each of these factors were used. p38 and ERK inhibitors each decreased the induction by IL-1β of Cox-2 mRNA in the primary DRG neuron cultures by 30% (FIG. 10).

Cox-2 mRNA [3] = test: Cox-2 mRNA in spinal cord and DRG after IL-1β administration in vivo; parameters: species or system rat; conditions: for upregulation of Cox-2 mRNA in the spinal cord: five hours later
Procedure: as §1

PGE2 = test: Central PGE2 levels after intrathecal IL-1β; assay type: in vivo, rat; conditions: intrathecal 5 ng
Procedure: To visualize the induction of Cox-2 protein in dorsal horns after peripheral inflammation, immunohistochemistry was performed on transverse spinal cord sections (20 μm) using a Cox-2 antibody (Santa Cruz) and a neuronal marker, the NeuN antibody (Chemicon), as described previously (Amay et al., Mol. Cell Neurosci. 15:331-342, 2000). In situ hybridization was performed using a digoxygenin-labeled riboprobe to visualize the induction of Cox-2 mRNA (Mannion et al., Proc. Natl. Acad. Sci. U. S. A. 96:9385, 1999). Low basal levels of Cox-2 mRNA and protein were present in dorsal horn neurons with a substantial upregulation six and 12 hours post-inflammation (FIGS. 2A-2D and 3). To determine whether this induction of Cox-2 was correlated with an increase in PGE2 levels, a 100-200 μl sample of cerebrospinal fluid was withdrawn from the cisterna magna of anaesthetized rats using a 27 G needle, and PGE2 levels were analyzed using a PGE2 enzyme-immunoassay according to the manufacturer's protocol (Amersham Pharmacia Biotech). […]
To determine whether IL-1β induces central Cox-2, rats were subjected to intravenous or intrathecal administration of this cytokine, and Cox-2 mRNA levels in the lumbar spinal cord were assessed five hours later. […]

p38 and ERK = test: MAP kinase phosphorylation in primary DRG neuron cultures; assay type: cell-based, rat; conditions: 10 ng/ml; 30 minutes
Procedure: To investigate the intracellular signaling pathway that leads to the increase in Cox-2 mRNA in the DRG neurons following treatment with IL-1β, the activation of the NFκ-B transcription factor and members of the MAP kinase family in primary DRG neurons was studied. […] Phosphorylated p38 and ERK were visualized by standard Western blot analysis and immunohistochemistry 30 minutes after administration of 10 ng/ml IL-1β to the culture medium (FIG. 12).
After CFA-induced inflammation, NGF is produced in the inflamed paw tissue and is retrogradely transported to the cell body of DRG neurons. NGF is critical for gene expression in DRG neurons and plays a major role in inflammatory pain (Lindsay et al., Nature 337: 362-364, 1989; and Woolf et al., Neuroscience 62:327-331, 1994). […] To determine whether NGF is required for the inflammation-induced activation of p38 and upregulation of VR1, NGF antiserum (i.p., 5 μl/g body weight, 84 mg/ml) was injected to neutralize endogenous NGF. […] Intrathecal injection of NGF (2 μg in 10 μl, twice a day for three days, Boeringer) increased both p-p38 levels and VR1 levels in DRG neurons. […] To test whether NGF acts via p38 to upregulate VR1, the p38 inhibitor SB203580 (1 μg) was co-administrated with NGF (twice a day for three days).

[4] = system: CFA-induced inflammatory pain in rats
Description: For these studies, animals were habituated to the testing environment daily for two days before baseline testing. Except for the heat test, all the animals were placed on an elevated wire grid. For mechanical allodynia, the plantar surface of the hindpaw was stimulated with a series of von Frey hairs. The threshold was taken as the lowest force that evoked a brisk withdrawal response. For heat hyperalgesia, the plantar surface of a hindpaw was exposed to a beam of radiant heat through a transparent Perspex surface (Hargreaves et al., Pain 32:77-88, 1988). The withdrawal latency was recorded, with a maximum 15 seconds as cutoff. The withdrawal latency was averaged over three trials.
To examine the functional consequences of ERK activation and its downstream effects on prodynorphin and NK-1 upregulation, we determined whether inhibition of ERK activation modified inflammatory pain hypersensitivity.
ERK activation by CFA may contribute to inflammatory pain hypersensitivity either by maintaining ongoing post-translational changes or by inducing transcription of genes such as NK1 and prodynorphin. In the former case, blocking ERK activation in established inflammation would be expected to reduce the pain hypersensitivity within tens of minutes due to dephosphorylation of ERK substrates. If the contribution of ERK activation were through transcription, inhibiting ERK activation would be expected to have no immediate effect, but have a delayed effect. To distinguish between these two possible mechanisms, U0126 was intrathecally injected (1 μg) into rats with established inflammation (24 hours after CFA injection) and tested pain hypersensitivity 30 minutes, 6 hours, and 24 hours after the injection of U0126.

prodynorphin mRNA = conditions: 2×1 μg intrathecal; 24 hours after CFA
Description: To investigate changes in the expression of prodynorphin in response to inflammation, an RNase protection assay, in situ hybridization, and immunohistochemistry were used. […] Differences between groups were compared using student the t-test or ANOVA, followed by Fisher's PLSD. For non-parametric data, the Mann-Whittney U test was applied.
For the in situ hybridization analysis, animals were rapidly sacrificed in a CO2 chamber, and L4-L5 spinal cord segments were removed and cut on a cryostat at a thickness of 20 μm. […] An antinsense RNA probe, and the corresponding sense control probe, were labeled by in vitro transcription using linearized DNA templates for prodynorphin and dig labeling mixture for two hours at 37° C. […] Tissue Sections were air dried for two hours, fixed in 4% paraformaldehyde for 15 minutes, and acetylated in acetic anhydride (0.25%) for 10 minutes. Sections were pre-hybridized for two hours at room temperature, then incubated in hybridization buffer overnight at 60° C. […] Eight non-adjacent sections from the L4-L5 lumbar spinal cord were randomly selected, and the numbers of mRNA-positive neuronal profiles in the superficial laminae and/or deep laminae of the dorsal horn in each section were counted (under a 20× object field) by an observer blind to the treatment. […]

NK-1 = conditions: 1 μg intrathecal 30 minutes before and 6 hours after CFA; 24 hours
Procedure: The data are represented as mean+SEM.
To explore whether ERK activation is involved in NK-1 upregulation, the MEK inhibitor U0126 was delivered intrathecally before the induction of inflammation via an osmotic pump (0.5 μg/ul/hr for 2 days). In particular, an Alzet osmotic pump (three days pump, 1 μl/hr) was filled with the MEK-inhibitor U0126 (0.5 μg/μl) in 50% DMSO, and the catheter of the pump implanted intrathecally at least three hours before CFA injection. DMSO (50%) was used as vehicle control.

[5] = non-inflamed animals, 1 μg intrathecal, 30 minutes after administration

Compound	Cox-2 mRNA expression in the spinal cord in vitro (Cox-2 mRNA [1])	Cox-2 mRNA and protein levels in cultured DRG neurons (Cox-2 mRNA [2])	upregulation of Cox-2 mRNA in the spinal cord (Cox-2 mRNA [3]; intrathecal 5 ng) [fold]	upregulation of Cox-2 mRNA in the spinal cord (Cox-2 mRNA [3]; intrathecal 50 ng) [fold]	Cox-2 mRNA levels in rat lumbar DRG neurons (Cox-2 mRNA [3]; intrathecal 1 and 10 ng, four hours after treatment)	upregulation of Cox-2 mRNA in the spinal cord (Cox-2 mRNA [3]; intravenous 1 μg)	upregulation of central PGE2 levels (PGE2) [fold]	central PGE2 levels (PGE2; p<0.005, n=6) [pg/mL]	phosphorylation of p38 and ERK in DRG cell cultures (p38 and ERK)	heat hyperalgesia and mechanical allodynia ([4]; 1 μg intrathecal 24 hours after CFA, tested at 30 minutes)	mechanical allodynia ([4]; 1 μg intrathecal 24 hours after CFA, tested at 6 hours)	heat hyperalgesia ([4]; 1 μg intrathecal 24 hours after CFA, tested at 24 hours)	heat withdrawal latency [4, 5]	mechanical withdrawal threshold [4, 5]	number of prodynorphin mRNA labeled neurons in the deep laminae (prodynorphin mRNA)	CFA-induced NK-1 increase in the dorsal horn (Western blot) (NK-1)
IL-1β: cytokine administered intravenously, intrathecally or to cultures	increased	increased significantly	20	30	substantially upregulated	four	50	1204 ± 360	lead to phosphorylation of p38 and ERK	–	–	–	–	–	–	–
N#CC(=C(/N)Sc1ccccc1N)/C(C#N)=C(\N)Sc1ccccc1N [U0126]	–	–	–	–	–	–	–	–	–	Neither heat hyperalgesia nor mechanical allodynia was significantly affected	decreased	decreased	113 % of vehicle control	108 % of the vehicle control	without affecting	inhibited
